What was measured:
[1] = oral intake; 'it is believed'; cited from earlier work
[2] = test system: 'restless legs' and intermittent leg cramps; conditions: Week 3-4; scale 0 to 100
Description: A person suffered from ‘restless legs’ and intermittent leg cramps during sleep.
Each week the subject was asked to rate the intensity of the problem on a consistent rating scale with ‘0’ indicating no problem and ‘100’ indicating the most severe expression of the condition.

[O]=[Mg] [magnesium oxide]
fraction of elemental magnesium absorbed for use by the body [1]: 3 to 12%

choline citrate
Ave. intensity of leg cramp related difficulty [2]: 83
